Results: PMC10180054, “Design, Synthesis and Biological Evaluation of Novel Pleuromutilin Derivatives Containing 6-Chloro-1-R-1H-pyrazolo[3,4-d]pyrimidine-4-amino Side Chain” (Molecules, 2023)
≈ marks a conversion by molar mass, not a printed value.

Key:
S. aureus AD3 = assay: MIC/MBC by broth dilution (CLSI); format: cell-based; settings: Staphylococcus aureus; S. aureus AD3 (clinical strain)
Experimental: (§1) The in vitro antimicrobial activity of the pleuromutilin derivatives was assessed against MRSA ATCC 43300, S. aureus ATCC 29213, S. aureus 144 and S. aureus AD3 according to the Clinical and Laboratory Standards Institute (CLSI). Tiamulin was used as a positive control drug. The results were summarized as the minimum inhibitory concentration (MIC) and the minimum bactericidal concentration (MBC) in Table 1 and Table 2. In addition, MIC results for the pleuromutilin derivatives against four Gram-negative bacteria are supplied in Tables S2 and S3.
(§2) The MIC and MBC values of the synthesized novel pleuromutilin derivatives against MRSA ATCC 43300, S. aureus ATCC 29213, S. aureus 144 and S. aureus AD3 were measured. Tiamulin was used as a positive control drug. The MIC and MBC values were manipulated by broth dilution according to the Clinical and Laboratory Standards (CLSI). Each compound to be measured was dissolved in a solution of 95% deionized water, 2.5% dimethyl sulfoxide (DMSO) and 2.5% Tween-80 with a concentration of 1280 µg/mL. Subsequently, serial twofold dilutions were made in a concentration range from 64 µg/mL to 0.0625 µg/mL. The working bacterial suspension was inoculated into each well, which provided the final inoculum density of 5 × 10^5 CFU/mL. Three parallel experiments were performed for each compound.
(§3) Overall, 25 µL of the bacterial solution from the wells with no obvious bacterial growth was inoculated on MH agar plates. Then, the inoculated MH agar plates were further cultured at 37 °C for 24 h.

S. aureus 144 = assay: MIC/MBC by broth dilution (CLSI); format: cell-based; settings: Staphylococcus aureus; S. aureus 144 (clinical strain)
Experimental: as §1, §2, §3

S. aureus ATCC 29213 = assay: MIC/MBC by broth dilution (CLSI); format: cell-based; settings: Staphylococcus aureus, ATCC29213; for MBC: S. aureus ATCC 29213; for MIC: S. aureus ATCC 29213, broth dilution, 24 h, 37 °C
Experimental: as §1, §2, §3

MRSA ATCC 43300 [1] = assay: MIC/MBC by broth dilution (CLSI); format: cell-based, Staphylococcus aureus; settings: for MBC / MIC: Staphylococcus aureus; for MBC: MRSA ATCC 43300, 99.9% of the bacteria killed; for MIC: MRSA ATCC 43300, broth dilution, 24 h, 37 °C, read-out: MIC
Experimental: as §1, §2, §3

MRSA ATCC 43300 [2] = assay: Constant concentration time–kill curves; format: cell-based, Staphylococcus aureus
Experimental: Time–kill kinetic assays were performed, which were used to investigate the in vitro bactericidal kinetic effect of compounds 12c, 19c, 22c and tiamulin.
Time–kill curve assays were established with the MIC value to investigate the antibacterial effect of constant drug concentration on MRSA. […] MRSA ATCC 43300 was incubated in MH broth at 37 °C for 4.5 h and diluted to 1 × 10^6 CFU/mL in MH broth. The saline control group was subjected to the same schedule but 0.9% saline water was added instead of the test compound. All the samples were incubated in an oscillating thermostatic at 37 °C, and then 100 μL of the mixture was extracted to 900 μL of sterile saline (0.9%) at 0, 3, 6, 9, 12 and 24 h, respectively. Samples were serially diluted 10-fold in sterile saline (0.9%) and inoculated onto agar plates. The colonies were counted after incubation at 37 °C for 24 h. Three independent experiments were performed according to our previous work. Time–kill curves were constructed by plotting the log10 CFU per millilitre versus time, and the change in bacterial concentration was determined.

MIC (S. aureus AD3) [µg/mL] | MIC (S. aureus 144) [µg/mL] | MIC (S. aureus ATCC 29213) [µg/mL] | melting point [°C] | MIC (MRSA ATCC 43300 [1]) [µg/mL] | MBC/MIC ratio (MRSA ATCC 43300 [1]; against MRSA) | SMILES | MBC (S. aureus AD3) [µg/mL] | MBC (S. aureus 144) [µg/mL] | MBC (S. aureus ATCC 29213) [µg/mL] | MBC (MRSA ATCC 43300 [1]) [µg/mL] | MRSA killed in time–kill assay (MRSA ATCC 43300 [2]; 2 × MIC, 24 h incubation) [%] | reduction of MRSA in time–kill assay (MRSA ATCC 43300 [2]; 2 × MIC, 24 h incubation) [log10 CFU/mL] | reduction of MRSA in time–kill assay (MRSA ATCC 43300 [2]; 4 × MIC) [log10 CFU/mL] | type of bactericidal kinetics (MRSA ATCC 43300 [2]; time–kill curves, 1 to 32 × MIC)
4 (≈ 6.45 µM) | 8 (≈ 12.9 µM) | 8 (≈ 12.9 µM) | 97 to 99 | 8 (≈ 12.9 µM) | – | C=C[C@]1(C)C[C@@H](OC(=O)CNc2nc(Cl)nc3c2cnn3-c2cccc(C)c2)[C@]2(C)[C@H](C)CC[C@]3(CCC(=O)[C@H]32)[C@@H](C)[C@@H]1O [Compound 12b, 22-[(6-Chloro-1-(3-methylphenyl)-1H-pyrazolo[3,4-d]pyrimidine-4-yl)amino]-22-deoxypleuromutilin] | 16 (≈ 25.8 µM) | 32 (≈ 51.6 µM) | 32 (≈ 51.6 µM) | 32 (≈ 51.6 µM) | – | – | – | –
0.25 (≈ 0.341 µM) | 1 (≈ 1.37 µM) | 0.25 (≈ 0.341 µM) | 141 to 144 | 0.25 (≈ 0.341 µM) | ≤ 2 | C=C[C@]1(C)C[C@@H](OC(=O)CSc2ccc(Nc3nc(Cl)nc4c3cnn4-c3ccc(F)cc3)cc2)[C@]2(C)[C@H](C)CC[C@]3(CCC(=O)[C@H]32)[C@@H](C)[C@@H]1O [Compound 19c, 22-[4-(6-Chloro-1-(4-fluorophenyl)-1H-pyrazolo[3,4-d]pyrimidine-4-yl)amino-Phenylsulfanyl]-22-deoxypleuromutilin] | 1 (≈ 1.37 µM) | 2 (≈ 2.73 µM) | 0.5 (≈ 0.683 µM) | 0.5 (≈ 0.683 µM) | 99.9 | −3.57 | −5.16 | time-dependent
> 64 | > 64 | > 64 | 115 to 118 | > 64 | – | C=C[C@]1(C)C[C@@H](OC(=O)CSc2ccc(Nc3nc(Cl)nc4c3cnn4-c3ccc4ccccc4c3)cc2)[C@]2(C)[C@H](C)CC[C@]3(CCC(=O)[C@H]32)[C@@H](C)[C@@H]1O [Compound 28c, 22-[4-(6-Chloro-1-(naphthalen-2-yl)-1H-pyrazolo[3,4-d]pyrimidine-4-yl-yl)amino-Phenylsulfanyl]-22-deoxypleuromutilin] | – | – | – | – | – | – | – | –
